Measurements reported in ChEMBL document CHEMBL3739348, “Novel pyrrole derivatives as selective CHK1 inhibitors: design, regioselective synthesis and molecular modeling” (Medchemcomm, 2015).

Experiments:
[1] = target: RAC-alpha serine/threonine-protein kinase (Homo sapiens) (UniProt P31749); assay: Inhibition of AKT1 (unknown origin) at 30 uM by microfluidic assay relative to control
[2] = target: RAC-beta serine/threonine-protein kinase (Homo sapiens) (UniProt P31751); assay: Inhibition of AKT2 (unknown origin) at 30 uM by microfluidic assay relative to control
[3] = target: Ribosomal protein S6 kinase alpha-5 (Homo sapiens) (UniProt O75582); assay: Inhibition of MSK1 (unknown origin) at 30 uM by microfluidic assay relative to control
Ribosomal protein S6 kinase alpha-5 (Homo sapiens), sequence (O75582 whole entry, looked up): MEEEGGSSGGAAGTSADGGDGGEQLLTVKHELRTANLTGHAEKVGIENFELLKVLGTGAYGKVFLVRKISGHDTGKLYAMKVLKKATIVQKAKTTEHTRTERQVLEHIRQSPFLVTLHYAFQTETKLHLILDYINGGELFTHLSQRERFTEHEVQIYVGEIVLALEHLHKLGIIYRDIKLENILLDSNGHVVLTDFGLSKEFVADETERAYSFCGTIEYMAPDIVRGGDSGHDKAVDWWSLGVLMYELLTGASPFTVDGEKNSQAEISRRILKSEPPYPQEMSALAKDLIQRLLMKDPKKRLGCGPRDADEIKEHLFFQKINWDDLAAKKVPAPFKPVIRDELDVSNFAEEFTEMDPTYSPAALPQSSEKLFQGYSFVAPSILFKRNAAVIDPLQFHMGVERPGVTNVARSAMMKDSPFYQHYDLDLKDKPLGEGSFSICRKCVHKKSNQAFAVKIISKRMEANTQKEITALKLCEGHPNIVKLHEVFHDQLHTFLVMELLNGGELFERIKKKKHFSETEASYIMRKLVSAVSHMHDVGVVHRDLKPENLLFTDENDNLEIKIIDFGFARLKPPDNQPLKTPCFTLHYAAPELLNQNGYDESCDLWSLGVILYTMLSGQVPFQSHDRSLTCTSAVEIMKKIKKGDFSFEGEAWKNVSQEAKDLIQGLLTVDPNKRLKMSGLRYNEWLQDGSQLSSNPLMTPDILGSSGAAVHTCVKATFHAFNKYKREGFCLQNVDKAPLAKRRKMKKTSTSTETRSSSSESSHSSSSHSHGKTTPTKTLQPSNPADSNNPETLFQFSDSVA

[4] = target: Protein kinase C (PKC) (Homo sapiens) (UniProt O94806+P41743+P17252+P05129+Q05655+P05771+Q05513+Q02156+P24723+Q15139+Q04759); assay: Inhibition of PKC (unknown origin) at 30 uM by microfluidic assay relative to control
[5] = target: MAP kinase-activated protein kinase 2 (Homo sapiens) (UniProt P49137); assay: Inhibition of MK2 (unknown origin) at 30 uM by microfluidic assay relative to control
[6] = target: T1, MAP kinase-activated protein kinase 5 (Homo sapiens) (UniProt Q8IW41); assay: Inhibition of MAPKAPK5 (unknown origin) at 30 uM by microfluidic assay relative to control
T1 sequence (whole entry): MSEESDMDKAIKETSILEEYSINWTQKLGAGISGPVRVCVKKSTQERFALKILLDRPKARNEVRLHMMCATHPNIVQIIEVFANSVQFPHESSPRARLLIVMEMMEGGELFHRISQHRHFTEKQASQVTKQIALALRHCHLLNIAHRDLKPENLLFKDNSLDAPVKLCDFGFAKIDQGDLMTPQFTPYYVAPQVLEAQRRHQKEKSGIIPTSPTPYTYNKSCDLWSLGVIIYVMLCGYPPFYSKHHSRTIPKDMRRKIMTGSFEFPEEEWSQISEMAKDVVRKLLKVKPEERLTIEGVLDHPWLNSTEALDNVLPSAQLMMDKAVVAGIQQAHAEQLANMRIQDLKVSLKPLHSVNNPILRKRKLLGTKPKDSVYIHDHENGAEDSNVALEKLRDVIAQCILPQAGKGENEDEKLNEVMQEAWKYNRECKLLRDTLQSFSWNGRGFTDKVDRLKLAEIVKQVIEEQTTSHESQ

[7] = target: T2, Serine/threonine-protein kinase Chk1 (Homo sapiens) (UniProt O14757); assay: Inhibition of CHK1 (unknown origin) at 30 uM by microfluidic assay relative to control
T2 sequence (whole entry): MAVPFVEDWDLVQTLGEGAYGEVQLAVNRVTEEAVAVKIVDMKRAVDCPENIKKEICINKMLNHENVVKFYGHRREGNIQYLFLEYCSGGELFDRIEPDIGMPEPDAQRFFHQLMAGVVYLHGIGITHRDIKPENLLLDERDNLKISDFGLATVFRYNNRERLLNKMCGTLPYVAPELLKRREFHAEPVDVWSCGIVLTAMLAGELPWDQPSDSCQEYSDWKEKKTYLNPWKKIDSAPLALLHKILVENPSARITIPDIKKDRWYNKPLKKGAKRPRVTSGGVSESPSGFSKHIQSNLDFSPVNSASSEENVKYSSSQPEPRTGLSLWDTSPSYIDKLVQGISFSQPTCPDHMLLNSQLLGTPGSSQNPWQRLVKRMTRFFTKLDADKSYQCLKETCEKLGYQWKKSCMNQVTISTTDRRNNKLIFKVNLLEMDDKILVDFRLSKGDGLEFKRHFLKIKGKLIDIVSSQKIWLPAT

[8] = target: Mitogen-activated protein kinase 3 (Homo sapiens) (UniProt P27361); assay: Inhibition of Erk1 (unknown origin) at 30 uM by microfluidic assay relative to control
Mitogen-activated protein kinase 3 (Homo sapiens), sequence (P27361 whole entry): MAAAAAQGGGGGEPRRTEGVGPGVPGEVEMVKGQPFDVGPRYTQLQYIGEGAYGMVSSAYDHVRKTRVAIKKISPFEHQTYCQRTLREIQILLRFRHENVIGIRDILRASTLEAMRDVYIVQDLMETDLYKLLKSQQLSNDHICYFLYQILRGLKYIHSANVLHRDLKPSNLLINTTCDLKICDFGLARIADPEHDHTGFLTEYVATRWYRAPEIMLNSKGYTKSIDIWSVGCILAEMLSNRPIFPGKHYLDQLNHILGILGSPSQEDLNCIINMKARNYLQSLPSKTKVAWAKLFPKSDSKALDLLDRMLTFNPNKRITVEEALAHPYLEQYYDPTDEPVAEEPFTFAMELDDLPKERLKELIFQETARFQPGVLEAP

[9] = target: Mitogen-activated protein kinase 1 (Homo sapiens) (UniProt P28482); assay: Inhibition of Erk2 (unknown origin) at 30 uM by microfluidic assay relative to control
Mitogen-activated protein kinase 1 (Homo sapiens), sequence (P28482 whole entry): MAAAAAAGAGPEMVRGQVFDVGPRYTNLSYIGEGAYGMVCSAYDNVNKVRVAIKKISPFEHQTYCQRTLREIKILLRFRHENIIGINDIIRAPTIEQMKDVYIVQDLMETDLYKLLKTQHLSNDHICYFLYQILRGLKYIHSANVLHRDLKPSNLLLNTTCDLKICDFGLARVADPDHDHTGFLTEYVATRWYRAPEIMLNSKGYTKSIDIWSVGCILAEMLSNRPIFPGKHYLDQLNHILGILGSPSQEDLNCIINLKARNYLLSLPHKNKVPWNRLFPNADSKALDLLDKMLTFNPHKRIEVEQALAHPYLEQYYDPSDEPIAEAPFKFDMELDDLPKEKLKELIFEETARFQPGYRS

[10] = target: Glycogen synthase kinase-3 (Homo sapiens) (UniProt P49840+P49841); assay: Inhibition of GSK3 (unknown origin) at 30 uM by microfluidic assay relative to control; format: protein assay
Glycogen synthase kinase-3 (Homo sapiens), sequence (P49840 whole entry, looked up): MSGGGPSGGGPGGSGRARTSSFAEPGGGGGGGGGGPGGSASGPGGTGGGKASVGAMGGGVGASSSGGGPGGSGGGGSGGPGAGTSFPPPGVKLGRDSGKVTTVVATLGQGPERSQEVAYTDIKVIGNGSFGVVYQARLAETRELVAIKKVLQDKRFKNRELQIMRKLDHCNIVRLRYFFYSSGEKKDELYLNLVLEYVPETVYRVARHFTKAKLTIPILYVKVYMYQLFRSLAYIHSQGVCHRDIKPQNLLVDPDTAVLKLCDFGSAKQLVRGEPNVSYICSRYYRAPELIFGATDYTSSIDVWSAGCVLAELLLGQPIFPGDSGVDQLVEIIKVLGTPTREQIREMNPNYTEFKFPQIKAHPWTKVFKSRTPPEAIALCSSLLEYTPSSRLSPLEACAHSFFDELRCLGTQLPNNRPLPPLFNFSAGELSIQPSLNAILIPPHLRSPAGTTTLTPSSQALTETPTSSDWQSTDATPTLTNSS
Glycogen synthase kinase-3 (Homo sapiens), sequence (P49841 whole entry, looked up): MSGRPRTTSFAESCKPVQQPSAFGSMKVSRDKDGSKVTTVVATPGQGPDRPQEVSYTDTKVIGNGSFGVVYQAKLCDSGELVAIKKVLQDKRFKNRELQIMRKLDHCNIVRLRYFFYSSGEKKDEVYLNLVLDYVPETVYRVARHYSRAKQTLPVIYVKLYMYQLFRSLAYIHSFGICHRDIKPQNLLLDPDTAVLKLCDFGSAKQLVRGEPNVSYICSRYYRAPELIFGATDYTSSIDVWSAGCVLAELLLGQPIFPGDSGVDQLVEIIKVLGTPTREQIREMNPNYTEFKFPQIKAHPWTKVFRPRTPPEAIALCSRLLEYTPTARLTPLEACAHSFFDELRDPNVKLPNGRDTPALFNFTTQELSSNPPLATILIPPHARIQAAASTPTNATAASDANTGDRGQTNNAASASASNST

[11] = target: Mitogen-activated protein kinase 14 (Homo sapiens) (UniProt Q16539); assay: Inhibition of p38a (unknown origin) at 30 uM by microfluidic assay relative to control
[12] = target: Tyrosine-protein kinase ABL1 (Homo sapiens) (UniProt P00519); assay: Inhibition of ABL (unknown origin) at 30 uM by microfluidic assay relative to control
[13] = target: Tyrosine-protein kinase Fyn (Homo sapiens) (UniProt P06241); assay: Inhibition of FYN (unknown origin) at 30 uM by microfluidic assay relative to control
Tyrosine-protein kinase Fyn (Homo sapiens), sequence (P06241 2-537 limits assumed): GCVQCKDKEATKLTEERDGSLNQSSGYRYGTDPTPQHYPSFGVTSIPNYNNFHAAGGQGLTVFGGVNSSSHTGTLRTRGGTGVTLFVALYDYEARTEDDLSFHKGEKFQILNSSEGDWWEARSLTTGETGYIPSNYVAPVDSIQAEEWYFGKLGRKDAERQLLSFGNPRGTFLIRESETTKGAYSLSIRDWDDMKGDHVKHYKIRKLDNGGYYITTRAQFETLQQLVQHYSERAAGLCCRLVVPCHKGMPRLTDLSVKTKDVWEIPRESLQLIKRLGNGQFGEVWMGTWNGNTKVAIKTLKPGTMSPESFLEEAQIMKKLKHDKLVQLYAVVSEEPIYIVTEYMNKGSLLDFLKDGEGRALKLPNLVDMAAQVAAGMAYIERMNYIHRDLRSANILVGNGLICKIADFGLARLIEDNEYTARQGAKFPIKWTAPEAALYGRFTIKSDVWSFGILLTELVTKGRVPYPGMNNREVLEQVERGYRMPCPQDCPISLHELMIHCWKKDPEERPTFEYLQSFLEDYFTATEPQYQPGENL

[14] = target: Tyrosine-protein kinase Lck (Homo sapiens) (UniProt P06239); assay: Inhibition of LCK (unknown origin) at 30 uM by microfluidic assay relative to control
Tyrosine-protein kinase Lck (Homo sapiens), sequence (P06239 2-509 limits assumed): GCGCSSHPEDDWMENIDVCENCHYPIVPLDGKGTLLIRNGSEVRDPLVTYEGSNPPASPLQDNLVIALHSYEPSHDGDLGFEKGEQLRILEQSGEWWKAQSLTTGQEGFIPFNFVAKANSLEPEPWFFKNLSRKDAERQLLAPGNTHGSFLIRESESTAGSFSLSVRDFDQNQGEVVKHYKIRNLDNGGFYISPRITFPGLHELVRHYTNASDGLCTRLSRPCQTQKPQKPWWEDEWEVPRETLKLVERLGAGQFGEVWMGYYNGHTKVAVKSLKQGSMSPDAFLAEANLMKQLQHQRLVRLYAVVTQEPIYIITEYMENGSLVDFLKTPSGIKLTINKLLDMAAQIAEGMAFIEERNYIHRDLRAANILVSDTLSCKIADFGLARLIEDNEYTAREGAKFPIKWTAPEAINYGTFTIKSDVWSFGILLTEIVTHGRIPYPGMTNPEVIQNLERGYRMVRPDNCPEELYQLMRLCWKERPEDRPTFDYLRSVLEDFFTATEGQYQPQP

[15] = target: Hepatocyte growth factor receptor (Homo sapiens) (UniProt P08581); assay: Inhibition of MET (unknown origin) at 30 uM by microfluidic assay relative to control
[16] = target: Casein kinase I isoform delta (Homo sapiens) (UniProt P48730); assay: Inhibition of CK1d (unknown origin) at 30 uM by microfluidic assay relative to control
[17] = target: T3, Aurora kinase A (Homo sapiens) (UniProt O14965); assay: Inhibition of AurA (unknown origin) at 30 uM by microfluidic assay relative to control
T3 sequence (whole entry): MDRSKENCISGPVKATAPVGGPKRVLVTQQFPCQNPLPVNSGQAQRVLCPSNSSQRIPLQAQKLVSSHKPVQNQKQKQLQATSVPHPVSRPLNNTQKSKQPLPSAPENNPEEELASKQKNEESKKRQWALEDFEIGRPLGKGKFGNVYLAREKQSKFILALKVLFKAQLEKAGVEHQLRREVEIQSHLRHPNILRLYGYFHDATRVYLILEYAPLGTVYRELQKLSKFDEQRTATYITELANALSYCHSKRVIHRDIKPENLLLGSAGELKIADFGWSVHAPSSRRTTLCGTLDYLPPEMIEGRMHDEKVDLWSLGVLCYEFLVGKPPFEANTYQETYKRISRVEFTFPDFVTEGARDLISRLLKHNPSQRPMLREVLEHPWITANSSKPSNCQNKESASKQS

[18] = target: Vascular endothelial growth factor receptor 2 (Homo sapiens, UniProt P35968); assay: Inhibition of VEGFR-2 (unknown origin) by microfluidic assay relative to control
Vascular endothelial growth factor receptor 2, sequence (P35968 whole entry): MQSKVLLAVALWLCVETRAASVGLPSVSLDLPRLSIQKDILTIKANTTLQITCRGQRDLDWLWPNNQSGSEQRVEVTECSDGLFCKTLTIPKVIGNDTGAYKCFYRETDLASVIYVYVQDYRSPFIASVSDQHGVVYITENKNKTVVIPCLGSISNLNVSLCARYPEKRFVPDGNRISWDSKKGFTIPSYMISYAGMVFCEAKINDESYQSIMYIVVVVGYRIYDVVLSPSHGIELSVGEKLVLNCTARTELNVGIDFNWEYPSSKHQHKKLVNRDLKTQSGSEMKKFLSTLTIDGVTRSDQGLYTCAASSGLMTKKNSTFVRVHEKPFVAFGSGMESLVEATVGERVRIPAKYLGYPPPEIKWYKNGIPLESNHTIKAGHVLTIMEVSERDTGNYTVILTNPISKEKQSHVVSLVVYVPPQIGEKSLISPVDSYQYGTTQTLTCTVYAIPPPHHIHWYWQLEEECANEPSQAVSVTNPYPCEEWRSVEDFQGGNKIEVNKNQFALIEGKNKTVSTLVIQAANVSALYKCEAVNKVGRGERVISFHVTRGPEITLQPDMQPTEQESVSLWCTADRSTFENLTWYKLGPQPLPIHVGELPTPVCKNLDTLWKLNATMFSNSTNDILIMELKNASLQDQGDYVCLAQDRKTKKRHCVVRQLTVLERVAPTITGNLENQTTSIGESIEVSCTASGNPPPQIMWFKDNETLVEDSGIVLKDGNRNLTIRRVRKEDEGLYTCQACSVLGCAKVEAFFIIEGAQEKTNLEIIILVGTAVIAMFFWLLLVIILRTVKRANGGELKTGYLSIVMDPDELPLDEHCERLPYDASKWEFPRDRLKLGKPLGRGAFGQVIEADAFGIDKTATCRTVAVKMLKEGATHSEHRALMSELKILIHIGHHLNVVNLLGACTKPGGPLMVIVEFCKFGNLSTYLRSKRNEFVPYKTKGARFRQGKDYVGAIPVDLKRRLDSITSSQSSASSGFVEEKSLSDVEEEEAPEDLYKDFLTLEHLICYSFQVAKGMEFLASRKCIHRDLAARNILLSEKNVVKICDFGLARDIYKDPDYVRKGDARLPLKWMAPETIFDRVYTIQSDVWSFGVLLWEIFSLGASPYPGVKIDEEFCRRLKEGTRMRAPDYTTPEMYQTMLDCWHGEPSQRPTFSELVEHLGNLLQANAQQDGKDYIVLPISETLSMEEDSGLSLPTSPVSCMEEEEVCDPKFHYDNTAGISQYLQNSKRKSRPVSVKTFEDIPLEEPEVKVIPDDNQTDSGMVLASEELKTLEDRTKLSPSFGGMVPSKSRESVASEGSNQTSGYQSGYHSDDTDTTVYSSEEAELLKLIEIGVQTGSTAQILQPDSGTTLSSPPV

[19] = target: T4, Serine/threonine-protein kinase Chk1 (Homo sapiens, UniProt O14757); assay: Inhibition of CHK1 (unknown origin) by microfluidic assay relative to control
T4 sequence (O14757 whole entry): T2 sequence (whole entry)

| SMILES | inhibition [1] | inhibition [2] | inhibition [3] | inhibition [4] | inhibition [5] | inhibition [6] | inhibition [7] | inhibition [8] | inhibition [9] | inhibition [10] | inhibition [11] | inhibition [12] | inhibition [13] | inhibition [14] | inhibition [15] | inhibition [16] | inhibition [17] | IC50 [18] | IC50 [19] |
| --- | --- | --- | --- | --- | --- | --- | --- | --- | --- | --- | --- | --- | --- | --- | --- | --- | --- | --- | --- |
| Cc1[nH]c(-c2ccccc2)c(-c2ccccc2)c1-c1nnc(O)c2nn(-c3ccccc3)cc12 | 90% | 56% | 34% | 63% | 19% | 32% | 84% | 8% | 23% | 43% | 2% | 5% | 12% | 32% | 4% | 53% | 32% | 3450 nM | 690 nM |
| Cc1[nH]c(-c2ccccc2)c(-c2ccccc2)c1C(=O)c1coc2c1cc(O)c1ccccc12 | 13% | 56% | 34% | 34% | 76% | 54% | 96% | 3% | 21% | 2% | 21% | 4% | 21% | 32% | 34% | 22% | 23% | 4560 nM | 310 nM |
| Cc1[nH]c(-c2ccccc2)c(-c2ccccc2)c1C(=O)c1cn(-c2ccccc2)nc1C(=O)Nc1ccccc1 | 45% | 86% | 87% | 44% | 26% | 54% | 80% | 8% | 24% | 23% | 13% | 32% | 21% | 25% | 3% | 43% | 2% | 3450 nM | 800 nM |
